In patent US20250186405A1, “Compound For Use In Treating Narcolepsy” (Alkermes, Inc., priority 2023, published 2025):
Several values for one entry are separate records, joined by “and”; a condition that tells them apart may be missing. Identical values can stand only once. Like-named read-outs stand apart in the source and are kept apart here.

What was measured:
Format in all cases: in vivo, human
[1] = system: subjects with idiopathic hypersomnia (IH); assay: Part 6 IH: Maintenance of Wakefulness Test (MWT) sleep latency; settings: for LS mean difference vs placebo in change from baseline, average MWT sleep latency: 2-8 hours post-dose; for Change from Day −1 in Average Sleep Latency on the MWT, LSM / Change from Day −1 in Average Sleep Latency on the MWT, LSM difference vs placebo: N = 8; for Average Sleep Latency on the MWT, Change from Day −1, Mean (SD) / Average Sleep Latency on the MWT, Change from Day −1, Median / Average Sleep Latency on the MWT, Dosing Day, Mean (SD) / Average Sleep Latency on the MWT, Dosing Day, Median: n = 8
Procedure: The Treatment Visit (Visit 2) began on Day −2, when each subject's eligibility criteria were reviewed, and eligible subjects were admitted to the clinic. Screening assessments and eligibility criteria review continued after admission until Day 1, prior to randomization and dosing. On Day −1, approximately 25 hours prior to study drug administration (on Day 1), baseline assessments for Maintenance of Wakefulness Test (MWT) began and were collected in a series of trials over approximately 10 hours.
At specified time points (Parts 5 and 6), MWT assessments were performed and took up to 40 minutes to complete. During the MWT trials, subjects were seated in a bed or reclining chair in a darkened room with their back and head supported such that their neck is not uncomfortably flexed or extended. Subjects were instructed to sit still and remain awake for as long as possible during each 40-minute trial. If the subject fell asleep during a trial, they were awakened, and the trial was terminated. […] Upon completion of the trial, the subject returned to a normal environment/ambiance and remained awake (and were awakened if they fall asleep) until the next trial.
Once Parts 5 and 6 were completed, the EEG data recorded during the MWT, as well as the technician notes, were transferred to the EEG vendor for further analysis. Technician notes were also maintained for transfer to Sponsor at the end of the study. A precise assessment of sleep latency was conducted by an experienced sleep scorer from the EEG vendor, and spectral analysis was performed on the EEG data recorded during MWT to assess absolute and relative powers in standard frequency bands (i.e., qEEG). All raw data and analysis results were transferred to the Sponsor.
For the changes from baseline in average sleep latency across the first 4 sessions of the MWT, descriptive statistics were provided by dose level. Mixed model with repeated measure (MMRM) for the 4-period crossover design were conducted with the change from baseline as a dependent variable, and the dose level and the period as fixed factors. The differences in the least square means between each Compound A dose level and the placebo (each Compound A dose level—the placebo), and the 2-sided CIs were provided.
Evaluation of Compound A effects on average sleep latency across 4 timepoints of MWT (2-, 4-, 6-, and 8-hours post-dose) has been conducted at each of the crossover periods (Days 1, 3, 5 and 7), testing placebo, and active dose levels of 5, 12, and 25 mg in the patients with IH compared to placebo. At pre-dose baseline on Day −1, MWT assessment was taken at similar times (2-, 4-, 6-, and 8-hours) as planned on dosing days assuming a dosing time of approximately 9 AM. Mean (SD) of baseline MWT average across the 4 time points on Day −1 was 22.61 (9.294), with high variability observed for IH subjects.

[2] = system: subjects with narcolepsy type-2 (NT2); assay: Part 5 NT2: Karolinska Sleepiness Scale (KSS); settings: for Change From Day −1 in Average Karolinska Sleepiness Scale, LSM difference vs placebo: NT2, N = 9; for Change From Day −1 in Average Karolinska Sleepiness Scale, LSM: NT2, N = 9, average of 1, 2, 4, 6, 8 h
Procedure: At points within the study, subjects were asked to rate their sleepiness using the KSS with regard to the level of sleepiness they experienced over the past 5 minutes.
The KSS is a validated, self-reported outcome measure of subjective sleepiness. The KSS was developed as a one-dimensional measure of sleepiness and has been validated against assessments like EEG and electrooculography activity (Akerstedt and Gillberg 1990). The KSS is comprised of a single question that asks the subject to rate their sleepiness in the immediately preceding 5 minutes on a 9-point scale where 1=extremely alert and 9=very sleepy, great effort to keep awake, fighting sleep. The KSS takes approximately 10 to 15 seconds to complete. Thus, the KSS is well suited for repeated measurement at short intervals as it assesses situational sleepiness within a short timeframe.
The PD parameters in the POC evaluation (e.g., changes from baseline in sleep latency on MWT, number of errors on SART and level of sleepiness on KSS at matched time points) were summarized using descriptive statistics for each time point by dose level.

[3] = Part 6 IH: plasma pharmacokinetics, single doses; settings: for Cmax / AUC(0-t) / Tmax: human, oral, plasma; for Cmax / AUC(0-t): geometric mean; for AUC(0-t): read-out: AUC0-24
Procedure: Treatments were administered under fasted state. Dose levels were as follows:
Subjects were randomized to 1 of 4 sequences.
Blood samples (up to 5 mL per sample) were collected for PK analysis of Compound A and its metabolite(s). The actual time of sample collection was recorded. The PK samples of the subjects randomized to placebo treatment were not analyzed. Any remaining plasma PK samples were used to explore the presence of any additional metabolites and/or biomarkers.
Plasma and urine concentrations of Compound A and its metabolite(s) were measured using a validated high-performance liquid chromatography with tandem mass spectrometry.
The PK population was used for summaries of plasma Compound A and its metabolite(s) concentrations and for analyses, summaries, and listing of PK parameters. Dose proportionality for Cmax, AUC0-t, and AUC0-∞ was evaluated using a linear model of logarithmically transformed values to assess the slope parameter, and the 95% CI for the slope was estimated. Where a 95% CI of the slope includes 1, it was considered as evidence of dose proportionality for that PK parameter.

In the case of `CS(=O)(=O)N[C@H]1CCCN2C(=O)COc3ccccc3C3CCC(CC3)OCC12` (stereo partly drawn) [Compound A, N-[(4S,4aR,7α,10α)-1,2,3,4,4a,5,7,8,9,10,16,17-dodecahydro-17-oxo-7,10-ethanopyrido[1,2-d][1,7,4]benzodioxaazacyclotridecin-4-yl]methanesulfonamide], the “LS mean difference vs placebo in change from baseline, average MWT sleep latency” value ([1]; 5 mg) was 8.07 min and 8 min, the “Change from Day −1 in Average Sleep Latency on the MWT, LSM” value ([1]; 5 mg) was 6.35 min and the “Change from Day −1 in Average Sleep Latency on the MWT, LSM difference vs placebo” value (“Change … on the MWT, LSM difference vs placebo” for short) ([1]; 5 mg) was 8.07 min. The “Average Sleep Latency on the MWT, Change from Day −1, Mean (SD)” value ([1]; 5 mg) was 6.35 (10.348) minutes, the “Average Sleep Latency on the MWT, Change from Day −1, Median” value ([1]; 5 mg) was 4.75 min and the “Average Sleep Latency on the MWT, Dosing Day, Mean (SD)” value ([1]; 5 mg) was 28.96 (9.196) minutes. For the same molecule, the “Average Sleep Latency on the MWT, Dosing Day, Median” value ([1]; 5 mg) was 29.13 min, the “observed mean MWT score over 8-hour period post-dose” value ([1]; 12 mg) was no less than 30 min and the “LS mean difference vs placebo in change from baseline, average MWT sleep latency” value ([1]; 12 mg) was 11.05 min and 11 min. The “Change from Day −1 in Average Sleep Latency on the MWT, LSM” value ([1]; 12 mg) was 9.33 min, the “Change … on the MWT, LSM difference vs placebo” value ([1]; 12 mg) was 11.05 min and the “Average Sleep Latency on the MWT, Change from Day −1, Mean (SD)” value ([1]; 12 mg) was 9.33 (11.468) minutes. For the same molecule, the “Average Sleep Latency on the MWT, Change from Day −1, Median” value ([1]; 12 mg) was 7.00 min, the “Average Sleep Latency on the MWT, Dosing Day, Mean (SD)” value ([1]; 12 mg) was 31.94 (7.814) minutes and the “Average Sleep Latency on the MWT, Dosing Day, Median” value ([1]; 12 mg) was 32.69 min. The “observed mean MWT score over 8-hour period post-dose” value ([1]; 25 mg) was no less than 30 min, the “LS mean difference vs placebo in change from baseline, average MWT sleep latency” value ([1]; 25 mg) was 17.67 min and 18 min and the “Change from Day −1 in Average Sleep Latency on the MWT, LSM” value ([1]; 25 mg) was 15.95 min. The “Change … on the MWT, LSM difference vs placebo” value ([1]; 25 mg) was 17.67 min, the “Average Sleep Latency on the MWT, Change from Day −1, Mean (SD)” value ([1]; 25 mg) was 15.95 (10.946) minutes and the “Average Sleep Latency on the MWT, Change from Day −1, Median” value ([1]; 25 mg) was 15.31 min. The “Average Sleep Latency on the MWT, Dosing Day, Mean (SD)” value ([1]; 25 mg) was 38.56 (2.821) minutes, the “Average Sleep Latency on the MWT, Dosing Day, Median” value ([1]; 25 mg) was 40.00 min and the “Change From Day −1 in Average Karolinska Sleepiness Scale, LSM difference vs placebo” value ([2]; 5 mg) was −0.31. For the same molecule, the “Change From Day −1 in Average Karolinska Sleepiness Scale, LSM” value ([2]; 5 mg) was −0.68, the “Change From Day −1 in Average Karolinska Sleepiness Scale, LSM difference vs placebo” value ([2]; 12 mg) was −0.60 and the “Change From Day −1 in Average Karolinska Sleepiness Scale, LSM” value ([2]; 12 mg) was −0.97. The “Change From Day −1 in Average Karolinska Sleepiness Scale, LSM difference vs placebo” value ([2]; 25 mg) was −1.42, the “Change From Day −1 in Average Karolinska Sleepiness Scale, LSM” value ([2]; 25 mg) was −1.78 and the “LS mean difference vs placebo in change from Day −1, average KSS” value ([2]; NT2, 5 mg) was −0.31. The “LS mean difference vs placebo in change from Day −1, average KSS” value ([2]; NT2, 12 mg) was −0.60, the “LS mean difference vs placebo in change from Day −1, average KSS” value ([2]; NT2, 25 mg) was −1.42 and the “fold change in AUC and Cmax for 5-fold change in dose” value ([3]; IH patients, 5 to 25 mg) was “approximately 3 fold”. The Cmax ([3]; 5 mg, IH, n = 7) was 11.8 ng/mL, the AUC(0-t) ([3]; 5 mg, IH, n = 7) was 78.9 ng·h/mL and the Cmax ([3]; 12 mg, IH, n = 7) was 18.1 ng/mL. For the same molecule, the AUC(0-t) ([3]; 12 mg, IH, n = 7) was 156 ng·h/mL, the Cmax ([3]; 25 mg, IH, N = 8) was 32.2 ng/mL and the AUC(0-t) ([3]; 25 mg, IH, N = 8) was 230 ng·h/mL. It also gave a Tmax ([3]; 5 mg, IH, median, n = 7, read-out: Tmax) of 1.5 h, a Tmax ([3]; 12 mg, IH, median, n = 7, read-out: Tmax) of 3 h and a Tmax ([3]; 25 mg, IH patients, 5, 12, 25 mg, read-out: median tmax, range across doses) of 1.5 to 3 h. For the same molecule, the Tmax ([3]; 25 mg, IH, median, N = 8, read-out: Tmax) was 1.5 h.
